The record followed here is patent US6376175B1, “Methods of discovering chemicals capable of functioning as gene expression modulators” (OSI Pharmaceuticals, Inc., priority 1989, dated 2002).

Series [1] deals with G-CSF mRNA. The experiment in a line: S1 nuclease protection, G-CSF mRNA in 5637 cells. It is filed as cell-based, human. To be noted: 18 hours, 542 (10, 50, 250 microM), 1255 (20, 100, 500 microM), 1793 (0.25, 1.2, 6.25 microM), 1904 (20, 100 microM). Here is the method:
(§1) S1 Nuclease protection assays were carried out as described in reference 94.
(§2) To further confirm, that compounds that had been identified in a luciferase expression assay using a G-CSF specific reporter cell line would be active in inducing transcription of the endogenous G-CSF gene, cells from the parental cell line 5637 used to construct the reporter cell line were incubated with cycloheximide (25 microg/ml), DMSO (0.5%, solvent control) and low, medium and high concentrations of the compounds 542 (10, 50, 250 microM),1255 (20, 100, 500 microM), 1793(0.25, 1.2, 6.25 microM) and 1904 (20, 100 microM) for 18 hours. RNA was extracted and the concentration of G-CSF, GM-CSF and gamma-actin mRNA was determined by the S1 protection method as described in Materials and Methods. The positions of G-CSF GM-CSF and gamma-actin specific protected fragments are indicated (G, GM, A) at the left side of the gel (FIG. 54).

For series [2], the system named is GM-CSF mRNA. The experiment in a line: S1 nuclease protection, GM-CSF mRNA in 5637 cells. The class given is cell-based, human. To be noted: 18 hours, low, medium and high concentrations. Here is the method: as §1, §2
In series [3] the test system is secreted G-CSF protein. The series can be described thus: Two-antibody sandwich immunoassay of G-CSF secreted by 5637 bladder carcinoma cells. The class given is cell-based, human. As to conditions: 5637 cells, 48 hours, serum-containing media; TNF-alpha 5 ng/ml; #542 50 uM; #1780 1 uM and 0.2 uM; FIG. 55. As for the experimental part:
Supernatants from 5637 bladder carcinoma cells incubated with chemicals registering as positives in the G-CSF promoter/luciferase High-Throughput assay were assayed for secreted G-CSF protein using the two-antibody sandwich immunoassay (96). The G-CSF Assay kit manufactured by Oncogene Science, Inc. was used and the manufacturer's instructions were followed.
The levels of G-CSF in the cell supernatants were determined by a sandwich-antibody assay as described in Materials and Methods (FIG. 55).

In series [4] the test system is FRE cells. The class given is cell-based. Here is the method: To determine cytotoxic concentrations of chemicals registering as positives in the High-Throughput luciferase assay the MTT cytotoxicity assay was employed (95). In this assay, a tetrazolium salt [3-(4,5-dimethylthiazol-2-yl)-2,5-diphenyl-tetrazolium bromide, MTT] is reduced to a colored formazan product by reducing enzymes present only in living metabolically active cells.
Cells were seeded into 96 well microtiterplates (20 000 cells/well) and cultured overnight. Compound #542 was added at various concentrations and the cells were incubated for 6 hours. Luciferase activity was determined as described in Materials and Methods. The MTT-colorimetric assay was carried out on identically treated samples of FRE cells. Induction of luciferase reporter signal (plain line) and on inhibition of respiration (dashed line) are plotted versus the concentrations of compound (FIG. 56). The ED50 for induction of luciferase activity differed from the ED50 for inhibition of respiration by a factor of almost 10, which might indicate that compound #542 exerts a specific effect on G- and GM-CSF transcription.

The test system of series [5] is endogenous G-CSF mRNA. The series can be described thus: Northern blot of endogenous G-CSF mRNA in 5637 cells. It is filed as cell-based, human. To be noted: compared to solvent DMSO, normalized with beta-actin probe. As for the experimental part:
Total cellular RNA was isolated from the G21 cell clone or from untransfected 5637 cells following incubation for 6 hours with various transcriptionally modulating chemicals identified in the high-throughput screen. Cells were grown in serum free medium as described above. Total cellular RNA was isolated using the RNAZol method (CINNA/BIOTECX, Friendswood, Tex., Laboratories International, Inc.). Cells were resuspended and lysed with RNAZol solution (1.5 ml/9 cm petri dish) and the RNA was solubilized by passing the lysate a few times through a pipette. Chloroform was added to the homogenate (0.1 ml/1 ml), and samples were shaken for 15 seconds followed by a 5 minutes incubatoin on ice. After centrifuging for 10 minutes, the upper phase was collected and an equal volume of isopropanol was added. Samples were incubated for 45 minutes at −20 C, and the RNA was pelleted for 15 minutes at 12,000×g at 4 C. The RNA pellet was then washed with 70% ethanol and dried briefly under vacuum.
Total cellular RNA was isolated from 5637 cells following incubation with chemicals as described above and electrophoresed in a 1% Agarose-[…] Formaldehyde gel. The RNA was transferred to Duralon-UV nylon filters (Stratagene, La Jolla, Calif.) using the manufacturer's recommended protocol. The filters were prehybridized for 4 hours (prehybridizing solution=5X SSC, 50 mM sodium pyrophosphate, 10X Denhardt's solution, 10% dextran sulfate, 7% and 250 µg/ml denatured ssDNA) and then hybridized in the same solution for 16 hours at 65 C in the presence of G-CSF or Beta-Actin (Oncor, Gaithersburg, Md.) specific probes. The G-CSF probe was a 0.6 kb AflII o Xhol fragment which contained most of exon 5 of the human G-CSF gene. The B-actin probe was used as a control probe to normalize for the total amount of RNA. […] Bands were excised and counted in a liquid scintillation counter (LKB, Gaithersburg, Md.), and counts obtained with the G-CSF specific probe were normalized relative to the counts obtained with the B-Actin specific probe. […]

`Nc1nc(=O)n([C@H]2C[C@H](O)[C@@H](CO)O2)cc1Br` [Chemical 542, 5-Bromo-2′-deoxycytidine]: in series [1], the “amount of G-CSF mRNA (S1 protection)” value is reported as “increased mRNA production”. In addition, the “amount of GM-CSF mRNA (S1 protection)” value in series [2] is listed as “increased the amount of GM-CSF mRNA”. Further, the “G-CSF secretion into media” value in series [3] is “increased G-CSF secretion”. Moreover, the “factor between ED50 for induction of luciferase activity (G21) and ED50 for inhibition of respiration (FRE cells)” value in series [4] is reported as ~10.

As to `CN(C)c1ccc(C(=C2C=CC(=[N+](C)C)C=C2)c2ccc([N+](C)(C)C)cc2)cc1.[Cl-].[Cl-]` [Chemical 670, Methyl Green], the “endogenous G-CSF mRNA production (Northern blot)” value (shortened to “endogenous G-CSF mRNA production”) in series [5] is reported as “stimulated production of G-CSF mRNA”.

On to `O=c1[nH]c(=O)n([C@H]2C[C@H](O)[C@@H](CO)O2)cc1Br` [Chemical 543, 5-Bromo-2′-deoxyuridine], for which the “amount of GM-CSF mRNA (S1 protection)” value in series [2] was “showed similar activity”.

`CN(C)C(=S)SCC#N` [Chemical 1793, Cyanomethyl-N,N-dimethyl dithiocarbomate]: the “amount of G-CSF mRNA (S1 protection)” value in series [1] is listed as “increased mRNA production”. In addition, the “amount of GM-CSF mRNA (S1 protection)” value in series [2] was “increased the amount of GM-CSF mRNA”.

For the molecule `Clc1cc(Cl)cc(Br)c1` [Chemical 1255, 1-Bromo-3,5-dichlorobenzene], the “endogenous G-CSF mRNA production” value in series [5] is given as “stimulated production of G-CSF mRNA”. The “amount of G-CSF mRNA (S1 protection)” value in series [1] is reported as “increased mRNA production”.

In the case of `Cl.Nc1c2ccccc2nc2ccccc12` [Chemical 1904, 9-Aminoacridine hydrochloride], in series [1], the “amount of G-CSF mRNA (S1 protection)” value is “increased mRNA production”.

`CN(C)c1ccc(C(=C2C=CC(=[N+](C)C)C=C2)c2ccc(N(C)C)cc2)cc1` [Chemical 1780, Crystal Violet]: the “G-CSF secretion into media” value in series [3] was “increased G-CSF secretion”.

B1: Interferon-gamma: proteinaceous positive regulator (protein, UniProt P01579 24-161, looked up)
Interferon gamma: QDPYVKEAENLKKYFNAGHSDVADNGTLFLGILKNWKEESDRKIMQSQIVSFYFKLFKNFKDDQSIQKSVETIKEDMNVKFFNSNKKKRDDFEKLTNYSVTDLNVQRKAIHELIQVMAELSPAAKTGKRKRSQMLFRG
Turning to B1, the “endogenous G-CSF mRNA production” value in series [5] was “increased G-CSF mRNA production”.
